Test results reported in article PMC9250534, “Synthesis and direct assay of large macrocycle diversities by combinatorial late-stage modification at picomole scale” (Nature Communications, 2022).

Target: MDM2 (Homo sapiens, UniProt Q00987)
Experiment: MDM2 binding screen of Libraries 3 and 4: displacement of fluorescent probe F-M8 at 750 nM macrocycle
Outline: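 Competition with nutlin-3a was run using the fluorescein conjugate. Library members came from scaffolds reacted 6 h at room temperature with carboxylic acids (20 equiv.), HBTU and DABCO in DMSO. Quenching was overnight in Tris-Cl pH 7.4 buffer with 0.01% Tween20.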

[1] = Panel b, Library 3: 63 scaffolds combinatorially acylated with 15 carboxylic acids at 30 picomole scale, displacement of fluorescent peptide probe, macrocycle 750 nM
[2] = Panel c, Library 4: best nine scaffolds and 15 additional carboxylic acids, displacement of fluorescent probe

Sequence of MDM2 (Q00987 whole entry): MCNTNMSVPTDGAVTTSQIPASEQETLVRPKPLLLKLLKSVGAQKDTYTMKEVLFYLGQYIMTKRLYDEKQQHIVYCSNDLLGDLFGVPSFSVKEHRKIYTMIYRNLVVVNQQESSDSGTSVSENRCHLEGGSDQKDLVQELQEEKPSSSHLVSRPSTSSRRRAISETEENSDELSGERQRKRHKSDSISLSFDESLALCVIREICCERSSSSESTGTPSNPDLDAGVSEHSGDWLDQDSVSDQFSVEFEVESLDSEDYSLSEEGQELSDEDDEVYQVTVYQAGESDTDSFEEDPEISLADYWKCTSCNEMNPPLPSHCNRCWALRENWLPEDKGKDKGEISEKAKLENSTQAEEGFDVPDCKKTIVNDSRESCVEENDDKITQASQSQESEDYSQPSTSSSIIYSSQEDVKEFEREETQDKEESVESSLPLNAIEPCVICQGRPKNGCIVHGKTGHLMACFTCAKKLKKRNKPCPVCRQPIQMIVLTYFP

| SMILES | fraction of fluorescent probe displaced [1] | fraction of fluorescent probe displaced [2] |
| --- | --- | --- |
| O=C(NC[C@@H]1NC(=O)[C@H]2CCCN(C2)C(=O)CCSSCCNC(=O)[C@H](Cc2c[nH]c3ccccc23)NC1=O)c1ccc2ccccc2c1 [X-Nip-Dap-Trp + Acid 107] | 0.440 | – |
| CC(Oc1cccc(Cl)c1)C(=O)NC[C@@H]1NC(=O)[C@H]2CCCN(C2)C(=O)CCSSCCNC(=O)[C@@H](Cc2c[nH]c3ccccc23)NC1=O (stereo partly drawn) [X-Nip-Dap-D-Trp + Acid 113] | -0.00533 | – |
| O=C(CCS(=O)(=O)c1ccccc1)NC[C@@H]1NC(=O)C2(CC2)CNC(=O)CCSSCCNC(=O)[C@H](Cc2cccc3ccccc23)NC1=O [X-Amcp-Dap-1-NaI + Acid 114] | -0.00533 | – |
| Cn1cc(C[C@@H]2NC(=O)[C@@H](CNC(=O)C3COc4ccccc4O3)NC(=O)[C@H]3CCCN(C3)C(=O)CCSSCCNC2=O)c2ccccc21 (stereo partly drawn) [X-Nip-D-Dap-Me-Trp + Acid 115] | -0.012 | – |
| O=C(NC[C@H]1NC(=O)[C@H]2CCCN(C2)C(=O)CCSSCCNC(=O)[C@@H](Cc2c[nH]c3ccccc23)NC1=O)c1ccc(Cl)s1 [X-Nip-D-Dap-D-Trp + Acid 14] | -0.00533 | – |
| O=C(/C=C/c1ccc(OCc2ccccc2)cc1)NC[C@@H]1NC(=O)C2(CC2)CNC(=O)CCSSCCNC(=O)[C@H](Cc2cccc3ccccc23)NC1=O [X-Amcp-Dap-1-NaI + Acid 110] | 0.00133 | – |
| O=C1NC(CNC(=O)C2COc3ccccc3O2)C(=O)NC(Cc2c[nH]c3ccccc23)C(=O)NCCSSCCC(=O)N2CCCC1C2 (mixture of isomers) [X-Nip-D-Dap-Trp + Acid 115] | 0.00133 | – |
| CC(Oc1cccc(Cl)c1)C(=O)NCCN1CC(=O)N[C@@H](Cc2c[nH]c3cc(Cl)ccc23)C(=O)NCCSSCCC(=O)N2CCC[C@@H](C2)C1=O (stereo partly shown) [X-Nip-N-Aeg-Cl-Trp + Acid 113] | -0.019 | – |
| Cn1cc(C[C@@H]2NC(=O)CN(CCNC(=O)c3ccc(Cl)cc3)C(=O)[C@@H]3CN(CCO3)C(=O)CCSSCCNC2=O)c2ccccc21 [X-Cop-N-Aeg-Me-Trp + Acid 25] | 0.028 | – |
| Cn1cc(C[C@@H]2NC(=O)[C@@H](CNC(=O)C3COc4ccccc4O3)NC(=O)C3(CC3)CNC(=O)CCSSCCNC2=O)c2ccccc21 (stereo partly drawn) [X-Amcp-D-Dap-Me-Trp + Acid 115] | 0.015 | – |
| O=C(/C=C/c1ccc2ccccc2c1)NCCN1CC(=O)N[C@@H](Cc2c[nH]c3cc(Cl)ccc23)C(=O)NCCSSCCC(=O)NCC2(CC2)C1=O [X-Amcp-N-Aeg-Cl-Trp + Acid 112] | -0.019 | – |
| O=C(CCS(=O)(=O)c1ccccc1)NC[C@@H]1NC(=O)C2(CC2)CNC(=O)CCSSCCNC(=O)[C@H](Cc2c[nH]c3ccccc23)NC1=O [X-Amcp-Dap-Trp + Acid 114] | -0.00533 | – |
| O=C(/C=C/c1ccc2ccccc2c1)NC[C@H]1NC(=O)C2(CC2)CNC(=O)CCSSCCNC(=O)[C@H](Cc2c[nH]c3cc(Cl)ccc23)NC1=O [X-Amcp-D-Dap-Cl-Trp + Acid 112] | -0.00533 | – |
| Cn1cc(C[C@@H]2NC(=O)[C@H](CNC(=O)/C=C/c3cccc(C(F)(F)F)c3)NC(=O)[C@H]3CCCN(C3)C(=O)CCSSCCNC2=O)c2ccccc21 [X-Nip-Dap-Me-Trp + Acid 122] | – | 0.101 |
| CN1C(=O)[C@H](CNC(=O)c2ccc(Cl)cc2)NC(=O)[C@@H]2CN(CCO2)C(=O)CCSSCCNC(=O)[C@@H]1Cc1c[nH]c2ccccc12 [X-Cop-Dap-NMe-Trp + Acid 25] | -0.00533 | – |
| O=C(CCS(=O)(=O)c1ccccc1)NCCN1CC(=O)N[C@@H](Cc2ccc3ccccc3c2)C(=O)NCCSSCCC(=O)N2CCC[C@@H](C2)C1=O [X-Nip-N-Aeg-2-Nal + Acid 114] | 0.015 | – |
| O=C(O)/C=C/c1ccncc1 [Acid 106] | 0.00455 | – |
| O=C(NC[C@H]1NC(=O)[C@H]2CCCN(C2)C(=O)CCSSCCNC(=O)[C@H](Cc2c[nH]c3cc(Cl)ccc23)NC1=O)c1ccc2ccccc2c1 [X-Nip-D-Dap-Cl-Trp + Acid 107] | 0.024 | – |
| O=C1CCSSCCNC(=O)C(Cc2cccc3ccccc23)NC(=O)C(CNC(=O)C2CC2c2ccccc2)NC(=O)C2(CC2)CN1 (mixture of isomers) [X-Amcp-D-Dap-1-NaI + Acid 105] | -0.034 | – |
| Cn1cc(C[C@@H]2NC(=O)CN(CCNC(=O)/C=C/c3ccc(OCc4ccccc4)cc3)C(=O)C3(CC3)CNC(=O)CCSSCCNC2=O)c2ccccc21 [X-Amcp-N-Aeg-Me-Trp + Acid 110] | 0.015 | – |
| O=C(NC[C@@H]1NC(=O)[C@H]2CCCN(C2)C(=O)CCSSCCNC(=O)[C@H](Cc2c[nH]c3cc(Cl)ccc23)NC1=O)c1ccc(Cl)s1 [X-Nip-Dap-Cl-Trp + Acid 14] | 0.181 | – |
| Cn1cc(C[C@@H]2NC(=O)[C@H](CNC(=O)CCS(=O)(=O)c3ccccc3)NC(=O)C3(CC3)CNC(=O)CCSSCCNC2=O)c2ccccc21 [X-Amcp-Dap-Me-Trp + Acid 114] | 0.041 | – |

| SMILES | fraction of fluorescent probe displaced [1] | fraction of fluorescent probe displaced [2] |
| --- | --- | --- |
| O=C1CN(CCNC(=O)c2cccc(Oc3ccccc3)c2)C(=O)[C@H]2CCCN(C2)C(=O)CCSSCCNC(=O)[C@H](Cc2cccc3ccccc23)N1 [X-Nip-N-Aeg-1-NaI + Acid 111] | 0.035 | – |
| CC(Oc1cccc(Cl)c1)C(=O)NCCN1CC(=O)N[C@@H](Cc2cccc3ccccc23)C(=O)NCCSSCCC(=O)NCC2(CC2)C1=O (stereo partly shown) [X-Amcp-N-Aeg-1-NaI + Acid 113] | 0.028 | – |
| O=C(/C=C/c1ccc(Cl)cc1)NC[C@H]1NC(=O)[C@H]2CCCN(C2)C(=O)CCSSCCNC(=O)[C@H](Cc2c[nH]c3cc(Cl)ccc23)NC1=O [X-Nip-D-Dap-Cl-Trp + Acid 108] | 0.00133 | – |
| O=C(NC[C@H]1NC(=O)[C@H]2CCCN(C2)C(=O)CCSSCCNC(=O)[C@H](Cc2c[nH]c3ccccc23)NC1=O)c1cccc(Oc2ccccc2)c1 [X-Nip-D-Dap-Trp + Acid 111] | 0.008 | – |
| O=C(/C=C/c1cccc(C(F)(F)F)c1)NC[C@@H]1NC(=O)[C@H]2CCCN(C2)C(=O)CCSSCCNC(=O)[C@H](Cc2c[nH]c3cc(Cl)ccc23)NC1=O [X-Nip-Dap-Cl-Trp + Acid 122] | – | 0.166 |
| O=C(NC[C@@H]1NC(=O)[C@H]2CCCN(C2)C(=O)CCSSCCNC(=O)[C@H](Cc2c[nH]c3ccccc23)NC1=O)c1ccc(Cl)cc1 [X-Nip-Dap-Trp + Acid 25] | 0.194 | – |
| O=C(/C=C/c1ccc(Cl)c(Cl)c1)NC[C@@H]1NC(=O)[C@H]2CCCN(C2)C(=O)CCSSCCNC(=O)[C@H](Cc2cccc3ccccc23)NC1=O [X-Nip-Dap-1-NaI + Acid 119] | – | 0.0035 |
| O=C1CCSSCCNC(=O)[C@@H](Cc2c[nH]c3ccccc23)NC(=O)[C@H](CNC(=O)C2CC2c2ccccc2)NC(=O)C2(CC2)CN1 (stereo partly drawn) [X-Amcp-Dap-D-Trp + Acid 105] | -0.015 | – |
| O=C1CCSSCCNC(=O)[C@H](Cc2ccc3ccccc3c2)NC(=O)[C@@H](CNC(=O)c2ccc(Cl)cc2)NC(=O)C2(CC2)CN1 [X-Amcp-D-Dap-2-Nal + Acid 25] | -0.019 | – |
| O=C(NC[C@H]1NC(=O)[C@H]2CCCN(C2)C(=O)CCSSCCNC(=O)[C@H](Cc2cccc3ccccc23)NC1=O)c1ccc2ccccc2c1 [X-Nip-D-Dap-1-NaI + Acid 107] | 0.00455 | – |
| O=C(CCS(=O)(=O)c1ccccc1)NCCN1CC(=O)N[C@@H](Cc2cccc3ccccc23)C(=O)NCCSSCCC(=O)NCC2(CC2)C1=O [X-Amcp-N-Aeg-1-NaI + Acid 114] | 0.00133 | – |
| O=C(CCS(=O)(=O)c1ccccc1)NC[C@@H]1NC(=O)[C@@H]2CN(CCO2)C(=O)CCSSCCNC(=O)[C@@H](Cc2c[nH]c3ccccc23)NC1=O [X-Cop-Dap-D-Trp + Acid 114] | 0.021 | – |
| CN1C(=O)[C@H](CNC(=O)/C=C/c2ccncc2)NC(=O)[C@H]2CCCN(C2)C(=O)CCSSCCNC(=O)[C@@H]1Cc1c[nH]c2ccccc12 [X-Nip-Dap-NMe-Trp + Acid 106] | -0.021 | – |
| O=C(NC[C@H]1NC(=O)[C@H]2CCCN(C2)C(=O)CCSSCCNC(=O)[C@H](Cc2c[nH]c3cc(Cl)ccc23)NC1=O)C1COc2ccccc2O1 (stereo partly drawn) [X-Nip-D-Dap-Cl-Trp + Acid 115] | -0.012 | – |
| CCCOc1ccc(C=CC(=O)NCC2NC(=O)C3CN(CCO3)C(=O)CCSSCCNC(=O)C(Cc3cn(C)c4ccccc34)NC2=O)cc1 (stereo not drawn) [X-Cop-Dap-Me-Trp + Acid 118] | – | 0.028 |
| O=C(/C=C/c1ccc(OCc2ccccc2)cc1)NC[C@@H]1NC(=O)[C@H]2CCCN(C2)C(=O)CCSSCCNC(=O)[C@@H](Cc2c[nH]c3ccccc23)NC1=O [X-Nip-Dap-D-Trp + Acid 110] | 0.00133 | – |
| O=C(NCC1NC(=O)C2CN(CCO2)C(=O)CCSSCCNC(=O)C(Cc2ccc3ccccc3c2)NC1=O)c1cccc(Oc2ccccc2)c1 (stereo not drawn) [X-Cop-Dap-2-Nal + Acid 111] | 0.008 | – |
| O=C(/C=C/c1cccc(Cl)c1)NC[C@@H]1NC(=O)C2(CC2)CNC(=O)CCSSCCNC(=O)[C@H](Cc2c[nH]c3ccccc23)NC1=O [X-Amcp-Dap-Trp + Acid 121] | – | 0.052 |
| O=C(/C=C/c1ccc2ccccc2c1)NC[C@H]1NC(=O)C2(CC2)CNC(=O)CCSSCCNC(=O)[C@H](Cc2cccc3ccccc23)NC1=O [X-Amcp-D-Dap-1-NaI + Acid 112] | -0.00533 | – |
| Cn1cc(C[C@@H]2NC(=O)[C@@H](CNC(=O)c3cccc(Oc4ccccc4)c3)NC(=O)[C@H]3CCCN(C3)C(=O)CCSSCCNC2=O)c2ccccc21 [X-Nip-D-Dap-Me-Trp + Acid 111] | 0.048 | – |
| O=C(/C=C/c1ccc(Cl)c(Cl)c1)NC[C@@H]1NC(=O)[C@H]2CCCN(C2)C(=O)CCSSCCNC(=O)[C@H](Cc2c[nH]c3cc(Cl)ccc23)NC1=O [X-Nip-Dap-Cl-Trp + Acid 119] | – | 0.134 |
